Reference: paper PMC11582101, “Unlocking the potential: unveiling tyrphostins with Michael-reactive cyanoacrylate motif as promising inhibitors of human 5-lipoxygenase” (Pflugers Archiv, 2024)
“Also recorded” adds a separate entry of the source. Where two headings read alike, the source gives them in different places.

Assays:
[1] = test system: U2OS cells; conditions: human, 10 µM
[2] = molecular target: T1, 5-LO (Homo sapiens, UniProt P09917); assay: 5-LO product formation in intact PMNL
T1 sequence (P09917 1-674): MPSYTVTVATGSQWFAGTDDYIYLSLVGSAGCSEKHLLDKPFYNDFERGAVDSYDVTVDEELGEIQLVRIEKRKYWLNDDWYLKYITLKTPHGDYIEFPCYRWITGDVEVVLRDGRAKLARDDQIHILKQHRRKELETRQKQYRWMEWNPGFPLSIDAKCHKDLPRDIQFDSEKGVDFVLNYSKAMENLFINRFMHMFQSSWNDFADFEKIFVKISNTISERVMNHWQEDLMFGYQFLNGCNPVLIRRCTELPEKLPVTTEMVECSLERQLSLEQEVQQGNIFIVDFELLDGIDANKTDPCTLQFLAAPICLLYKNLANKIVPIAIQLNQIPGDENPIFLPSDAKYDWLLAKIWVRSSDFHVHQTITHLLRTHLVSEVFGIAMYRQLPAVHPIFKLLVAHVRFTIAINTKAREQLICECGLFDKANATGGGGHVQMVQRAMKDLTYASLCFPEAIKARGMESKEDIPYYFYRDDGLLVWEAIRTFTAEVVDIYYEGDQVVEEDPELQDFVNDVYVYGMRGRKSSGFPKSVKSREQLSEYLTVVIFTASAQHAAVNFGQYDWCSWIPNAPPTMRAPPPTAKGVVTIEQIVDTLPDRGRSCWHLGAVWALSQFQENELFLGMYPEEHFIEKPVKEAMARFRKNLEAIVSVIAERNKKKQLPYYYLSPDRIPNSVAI

[3] = molecular target: T2, 12-LO (Homo sapiens, UniProt P18054); assay: 12-HETE formation in platelets; conditions: 20 µM AA, 2.5 µM A23187, n = 3–6
T2 sequence (P18054 1-663): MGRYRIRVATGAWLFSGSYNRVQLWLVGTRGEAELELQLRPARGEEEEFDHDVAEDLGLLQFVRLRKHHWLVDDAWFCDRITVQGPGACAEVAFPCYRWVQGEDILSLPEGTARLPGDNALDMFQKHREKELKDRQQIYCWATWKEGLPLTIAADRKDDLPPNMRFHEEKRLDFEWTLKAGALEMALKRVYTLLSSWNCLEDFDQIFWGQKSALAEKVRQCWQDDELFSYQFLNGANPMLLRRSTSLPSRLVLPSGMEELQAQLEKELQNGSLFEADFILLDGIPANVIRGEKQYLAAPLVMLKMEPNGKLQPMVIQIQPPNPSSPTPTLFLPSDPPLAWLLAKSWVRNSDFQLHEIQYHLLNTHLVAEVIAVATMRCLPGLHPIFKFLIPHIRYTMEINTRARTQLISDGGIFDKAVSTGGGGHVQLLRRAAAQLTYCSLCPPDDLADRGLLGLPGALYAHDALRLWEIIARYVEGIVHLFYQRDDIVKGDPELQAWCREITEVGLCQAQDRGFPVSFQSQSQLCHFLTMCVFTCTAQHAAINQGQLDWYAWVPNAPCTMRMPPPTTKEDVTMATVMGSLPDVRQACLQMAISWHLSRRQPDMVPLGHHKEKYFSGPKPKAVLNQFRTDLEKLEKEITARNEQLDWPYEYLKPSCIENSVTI

[4] = test system: 15-LO; assay: 15-HETE formation in intact PMNL; conditions: for IC50: read-out: IC50 for inhibition of 15-HETE formation, PMNL
[5] = molecular target: T3, r5-LO_4C (Homo sapiens, UniProt P09917, C160S/C301S/C417S/C419S); assay: Covalent inhibitor binding by mass spectrometry, r5-LO_4C; conditions: 20 µM protein, 100 µM compound, at least 1 h RT
T3 construct: made in house; host or cells: E. coli BL21 (DE3)
T3 sequence (P09917 2-674 C160S/C301S/C417S/C419S limits assumed): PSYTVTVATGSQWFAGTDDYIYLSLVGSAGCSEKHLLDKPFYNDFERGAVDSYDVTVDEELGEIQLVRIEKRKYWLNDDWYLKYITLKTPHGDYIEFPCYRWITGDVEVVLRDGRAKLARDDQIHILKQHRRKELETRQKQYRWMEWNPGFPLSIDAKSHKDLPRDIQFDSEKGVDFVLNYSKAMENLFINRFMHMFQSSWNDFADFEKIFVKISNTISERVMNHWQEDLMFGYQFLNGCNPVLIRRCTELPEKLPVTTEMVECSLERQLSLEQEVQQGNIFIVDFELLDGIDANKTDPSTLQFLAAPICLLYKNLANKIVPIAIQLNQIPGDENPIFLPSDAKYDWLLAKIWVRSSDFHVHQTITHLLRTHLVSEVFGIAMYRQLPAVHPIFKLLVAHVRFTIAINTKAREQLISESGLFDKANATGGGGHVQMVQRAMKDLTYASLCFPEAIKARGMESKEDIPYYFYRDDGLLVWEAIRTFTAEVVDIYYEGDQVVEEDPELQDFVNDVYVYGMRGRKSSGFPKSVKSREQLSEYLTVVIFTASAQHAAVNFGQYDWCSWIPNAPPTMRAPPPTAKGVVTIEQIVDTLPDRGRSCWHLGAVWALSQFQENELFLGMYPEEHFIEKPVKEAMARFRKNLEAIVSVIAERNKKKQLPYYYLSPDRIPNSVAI
Protocol: r5-LO_WT or r5-LO_4C protein was diluted to 20 µM in gel filtration buffer; 100 µM of compound was added and incubated for a minimum time of 1 h at RT before 10 µL was injected onto a 1260 Infinity HPLC (Agilent, Santa Clara, USA) using a C3 column with a flow rate of 0.4 mL/min as published before. The HPLC was coupled with a 6230 electrospray ionization TOF LC/MS detector (Agilent, Santa Clara, CA, USA). Data were acquired using the Agilent MassHunter Acquisition software and processed with the Agilent Mass Hunter BioConfirm software (B.08.00). Peak intensities were calculated and normalized to the highest count of each data set with GraphPad Prism version 7.05 (GraphPad Software, Boston, MA, USA).
Fig. 3 Mass spectra of r5-LO_WT or r5-LO_4C incubated with inhibitors (blue or red line). 20 µM r5-LO_WT (left) or r5-LO_4C (right) was incubated with 100 µM degrasyn (A), AG556 (B), tyrphostin A9 (C), AG879 (D), or CAPE (E) at RT for at least 1 h before analysis. Measurement was performed using an Agilent 1260 Infinity HPLC with an Agilent 6230 TOF LC/MS detector. Obtained data were processed using Mass Hunter BioConfirm (B.08.00), and resulted counts were normalized to the highest peak of the spectrum

[6] = molecular target: T4, r5-LO_WT (Homo sapiens, UniProt P09917); assay: Covalent inhibitor binding by mass spectrometry, r5-LO_WT; conditions: 100 µM compound; for inhibitor adducts to r5-LO_WT detected by mass spectrometry: 20 µM protein, at least 1 h RT; for mass shift of inhibitor adduct: 20 µM r5-LO_WT
T4 construct: made in house; host or cells: E. coli BL21 (DE3)
T4 sequence (P09917 1-674): T1 sequence (P09917 1-674)

[7] = molecular target: T1, 5-LO; assay: 5-LO activity in PMNL homogenates; type: biochemical; parameters: endogenous in cells; host or cells: human PMNL (polymorphonuclear leukocytes); conditions: sonicated PMNL, 20 µM AA
Protocol: Samples were kept on ice, and 1 mM ATP or 1 mM ATP/1 mM GSH was added. The inhibitors were preincubated with the cell homogenate on ice for 15 min before heating the samples at 37 °C for 30 s. […] Solid phase extraction and UPLC analysis were performed as described above.

[8] = test system: U2OS cells; assay: Multiplex live-cell high-content assay; conditions: for normalized healthy cell count: up to 48 h, normalized to DMSO
[9] = intact PMNL, 20 µM AA, 2.5 µM A23187, (95% CI), n = 3–6
[10] = IC50 for inhibition of 5-LO product formation, PMNL, intact PMNL, 20 µM AA, 2.5 µM A23187, (95% CI), n = 3–6

Row | Molecule | IC50 [2] | IC50 for inhibition of 12-HETE formation, platelets [3] | IC50 [4, 9] | IC50 for inhibition of 15-HETE formation, PMNL [4, 9] | further results
1 | N#C/C(=C\c1ccc(O)c(O)c1)C(=O)NCCCCc1ccccc1 [AG556] | 340 nM | no inhibition | 5.1 µM | – | normalized healthy cell count [1]: around 75%; inhibitor adducts to r5-LO_4C detected by mass spectrometry [5]: only one adduct; inhibitor adducts to r5-LO_WT detected by mass spectrometry [6]: covalently bound to up to four cysteines; also recorded: four peaks; mass shift of inhibitor adduct [6]: 336 Da
2 | CCC[C@H](NC(=O)/C(C#N)=C/c1cccc(Br)n1)c1ccccc1 [Degrasyn] | 620 nM | no inhibition | 7.9 µM | moderate inhibition | normalized healthy cell count [1]: below 50%; increase of mitochondrial mass ([1]; 48 h): more than 50%; IC50 ([7]; with 1 mM GSH, read-out: IC50 5-LO, PMNL homogenates + GSH): 4200 nM; IC50 ([7]; without GSH, read-out: IC50 5-LO, PMNL homogenates): 890 nM; phenotypic properties (tubulin, mitochondrial mass, membrane permeability, cell morphology) ([8]; 10 µM, 48 h): additional effects on microtubules and on membrane integrity; inhibitor adducts to r5-LO_4C detected by mass spectrometry [5]: only one adduct; inhibitor adducts to r5-LO_WT detected by mass spectrometry [6]: covalently bound to up to four cysteines; also recorded: four peaks; mass shift of inhibitor adduct [6]: 384 Da
3 | AG825 | – | – | – | – | IC50 for inhibition of 15-HETE formation, PMNL [4]: no inhibition
4 | CC(C)(C)c1cc(C=C(C#N)C#N)cc(C(C)(C)C)c1O [Tyrphostin A9] | 1100 nM | no inhibition | – | no inhibition | normalized healthy cell count ([8]; 1 µM inhibitor): 57%; normalized healthy cell count ([8]; 1 µM inhibitor, listed as tyrphostin A9): about 50%; normalized healthy cell count ([8]; 10 µM inhibitor): below 50%; inhibitor adducts to r5-LO_WT detected by mass spectrometry [6]: did not detect mass shifts
5 | N#C/C(=C\c1ccc(O)c(O)c1)C(N)=O [(E)-AG99] | 7200 nM | no inhibition | – | no inhibition | –
6 | CC(C)(C)c1cc(C=C(C#N)C#N)cc(Br)c1O [AG1024] | 3100 nM | – | – | no inhibition | –
7 | O=C(/C=C/c1ccc(O)c(O)c1)OCCc1ccccc1 [CAPE, caffeic acid phenethyl ester] | 230 nM | no inhibition | 10 µM | – | normalized healthy cell count [1]: around 75%; inhibitor adducts to r5-LO_WT detected by mass spectrometry [6]: did not detect mass shifts
8 | CC(C)c1cc(/C=C(\C#N)C(=O)NCCCc2ccccc2)cc(C(C)C)c1O [SU1498] | 760 nM | – | – | did not show inhibition; also recorded: no inhibition | –
9 | N#CC(C#N)=Cc1ccc(O)cc1 [Tyrphostin 8] | – | – | – | no inhibition | IC50 for inhibition of 5-LO product formation, PMNL [2, 9]: no inhibition; IC50 for inhibition of 5-LO product formation, PMNL ([2]; intact PMNL, 20 µM AA, 2.5 µM A23187, (95% CI), n = 3–6, listed as tyrphostin 8): failed to inhibit
10 | CN[C@@H]1C[C@H]2O[C@@](C)([C@@H]1OC)n1c3ccccc3c3c4c(c5c6ccccc6n2c5c31)C(=O)NC4 [Staurosporine] | – | – | – | – | normalized healthy cell count ([8]; 10 µM inhibitor): about 25%

The next lines start with results.

Row | IC50 [2] | IC50 for inhibition of 12-HETE formation, platelets [3] | IC50 [4, 9] | IC50 for inhibition of 15-HETE formation, PMNL [4, 9] | Molecule | further results
11 | 5900 nM | – | – | no inhibition | N#C/C(=C/c1cc(Cl)cc(Cl)c1)c1cccnc1 [RG14620] | –
12 | 860 nM | no inhibition | 22 µM | – | N#C/C(=C\c1ccc(O)c(O)c1)C(=O)Nc1ccccc1 [AG494] | –
13 | 5400 nM | no inhibition | – | no inhibition | N#CC(C#N)=Cc1ccc(O)c(O)c1 [AG18] | –
14 | – | – | – | no inhibition | N#CC(C#N)=Cc1ccc([N+](=O)[O-])c(O)c1 [AG126] | IC50 for inhibition of 5-LO product formation, PMNL [2, 9]: no inhibition
15 | – | – | – | no inhibition | N#C/C(=C\c1ccc(O)c(O)c1)C(=O)O [AG30] | IC50 for inhibition of 5-LO product formation, PMNL [2, 9]: no inhibition
16 | – | – | 18 µM | moderate inhibition | C[C@H](NC(=O)/C(C#N)=C/c1cccc(Br)n1)c1ccccc1 [WP1066] | IC50 [2, 10]: 930 nM
17 | 8000 nM | no inhibition | – | no inhibition | N#CC(C#N)=Cc1cc(O)c(O)c(O)c1 [AG82] | –
18 | – | no inhibition | > 25 µM | – | N#C/C(=C\c1ccc(O)c(O)c1)C(=O)NCc1ccccc1 [AG490] | IC50 [2, 10]: 1100 nM
19 | > 30000 nM | – | – | no inhibition | COc1ccc(/C=C(/C#N)c2cccnc2)cc1OC [RG13022] | –
